Article PMC3367934 (Molecular & Cellular Proteomics : MCP, 2012)

Columns and labels:
[1] = system: antibodies in serum from dnaX-immunized mice; assay type: binding, mouse
[2] = immune sera mixing experiment; assay type: in vivo, mouse; settings: 6-week immune sera physically mixed 50:50

| Substance | ability to adsorb the signal from immune sera [1] | dnaX-specific peptides reduced in intensity by adsorption ([1]; of the 210 dnaX-specific peptides, beads bearing dnaX protein) [peptides] | distinguishability in 50:50 mixed sera [2] |
| --- | --- | --- | --- |
| Transferrin: irrelevant human protein used to adsorb the immune sera | Only the dnaX protein could adsorb the signal |  |  |
| dnaX protein: recombinant dnaX protein produced in E. coli | Only the dnaX protein could adsorb the signal | 35 |  |
| PARYANANGRDLITLGIGSC |  |  | still distinguishable from the KLH-immunized mice |
